Our source for the EC50 values is patent US10584115B2, “Substituted pyridine and pyrazine BMI-1 inhibitors” (PTC Therapeutics, Inc., priority 2013, dated 2020).

SMILES strings stand for the structures.

The first assay has as its system Bmi-1 protein. Nature of the assay: Sandwich ELISA Assay (Bmi-1 protein level in HT-1080 cells after compound treatment). Format: cell-based. Conditions: Table 1, Bmi-1 sandwich ELISA, read-out: ELISA EC50 value for Bmi-1 protein. The gist of the method: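 Sandwich ELISA quantified Bmi-1 protein against recombinant standard (125–8000 pg/mL), with lysates captured overnight at 4 °C and signal by HRP/TMB at 450 nm (570 nm reference). Lysates came from HT-1080 cells incubated 40–48 h with test compounds in 0.5% DMSO.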
Take `COCCn1nc(C)c(-c2cncc(Nc3ccc(C(F)(F)F)cc3)n2)c1C` [compound 399, 6-[1-(2-methoxyethyl)-3,5-dimethyl-1H-pyrazol-4-yl]-N-[4-(trifluoromethyl)phenyl]pyrazin-2-amine]: the EC50 was 0.001 to 0.01 µM.

For `CCc1nc2ncc(Cl)cc2n1-c1cncc(Nc2ccc(C(F)(F)F)cc2)n1` [compound 543, 6-(6-chloro-2-ethyl-1H-imidazo[4,5-b]pyridin-1-yl)-N-[4-(trifluoromethyl)phenyl]pyrazin-2-amine], the EC50 is 0.1 to 3 µM.

In the case of `CCc1nc2ncc(Cl)cc2n1-c1cc(C#N)cc(Nc2ccc(OC(F)F)cc2)n1` [compound 451, 2-(6-chloro-2-ethyl-1H-imidazo[4,5-b]pyridin-1-yl)-6-{[4-(difluoromethoxy)phenyl]amino}pyridine-4-carbonitrile], the EC50 is 0.001 to 0.01 µM.

Consider `COc1cccc(Nc2cncc(-n3c(C)nc4cc(F)c(F)cc43)n2)c1` [compound 578, 6-(5,6-difluoro-2-methyl-1H-benzimidazol-1-yl)-N-(3-methoxyphenyl)pyrazin-2-amine], for which the EC50 lay within 0.1 to 3 µM.

Regarding `CCc1nc2ncc(Nc3ccc(OC(F)F)c(F)c3)cc2n1-c1cncc(Nc2ccc(OC(F)F)c(F)c2)n1` [compound 550, N-[4-(difluoromethoxy)-3-fluorophenyl]-1-(6-{[4-(difluoromethoxy)-3-fluorophenyl]amino}pyrazin-2-yl)-2-ethyl-1H-imidazo[4,5-b]pyridin-6-amine], the EC50 is 0.1 to 3 µM.

As for `FC(F)(F)c1ccc(Nc2cccc(-n3c(C(F)(F)F)nc4ncccc43)n2)cc1` [compound 137, 6-[2-(trifluoromethyl)-1H-imidazo[4,5-b]pyridin-1-yl]-N-[4-(trifluoromethyl)phenyl]pyridin-2-amine], the EC50 was 0.1 to 3 µM.

Turning to `CCc1nc2ncc(F)cc2n1-c1cncc(Nc2ccc(C(F)(F)F)c(F)c2)n1` [compound 374, 6-(2-ethyl-6-fluoro-1H-imidazo[4,5-b]pyridin-1-yl)-N-[3-fluoro-4-(trifluoromethyl)phenyl]pyrazin-2-amine], the EC50 was in the range of 0.01 to 0.1 µM.

On to `Cc1nc2cc(F)c(F)cc2n1-c1cncc(Nc2ccc(OC(F)(F)F)c(F)c2)n1` [compound 301, 6-(5,6-difluoro-2-methyl-1H-benzimidazol-1-yl)-N-[3-fluoro-4-(trifluoromethoxy)phenyl]pyrazin-2-amine], for which the EC50 lay within 0.1 to 3 µM.

On to `Cc1nc2c(F)cc(F)cc2n1-c1cc(C#N)cc(Nc2ccc(OC(F)F)cc2)n1` [Cpd 448, 2-{[4-(difluoromethoxy)phenyl]amino}-6-(4,6-difluoro-2-methyl-1H-benzimidazol-1-yl)pyridine-4-carbonitrile], for which the EC50 lay in the range of 0.01 to 0.1 µM.

Consider `CCc1nn2ccccc2c1-c1cncc(Nc2ccc(F)cc2)n1` [compound 630, 6-(2-ethylpyrazolo[1,5-a]pyridin-3-yl)-N-(4-fluorophenyl)pyrazin-2-amine], for which the EC50 is 0.1 to 3 µM.

As to `Cc1nn2ccccc2c1-c1cncc(Nc2ccc(F)cc2)n1` [compound 568, N-(4-fluorophenyl)-6-(2-methylpyrazolo[1,5-a]pyridin-3-yl)pyrazin-2-amine], the EC50 lay within 0.1 to 3 µM.

Regarding `Cc1nc2cc(F)c(F)cc2n1-c1c[n+]([O-])cc(Nc2ccc(C(F)(F)F)cc2)n1` [compound 495, 6-(5,6-difluoro-2-methyl-1H-benzimidazol-1-yl)-N-[4-(trifluoromethyl)phenyl]pyrazin-2-amine 4-oxide], the EC50 was 0.01 to 0.1 µM.

With `Cc1nc2ncccc2n1-c1cc(NC(=O)OC(C)(C)C)cc(Nc2ccc(C(F)(F)F)cc2)n1` [compound 290, tert-butyl[2-(2-methyl-1H-imidazo[4,5-b]pyridin-1-yl)-6-{[4-(trifluoromethyl)phenyl]amino}pyridin-4-yl]carbamate], the concentration for a half-maximal effect (EC50) was 0.1 to 3 µM.

The assay is the same for the next values; noted with them: read-out: ELISA EC50 value for Bmi-1 protein, Table 1, Bmi-1 sandwich ELISA.
Turning to `FC(F)(F)c1ccc(Nc2cccc(-c3c(C(F)(F)F)nc4ccccn34)n2)cc1` [Cpd 18, 6-[2-(trifluoromethyl)imidazo[1,2-a]pyridin-3-yl]-N-[4-(trifluoromethyl)phenyl]pyridin-2-amine], the EC50 lay within 0.001 to 0.01 µM.
